Calls of active or inactive are those of the source.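 Rule for the calls: active = IC50 below 50 µM against PP5; inactive = the rest.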
Each molecule was assayed against Serine/threonine-protein phosphatase 5 (Homo sapiens) (UniProt P53041) (assay: PP5 inhibition of phosphorylase dephosphorylation, late-stage follow-up, selectivity assay for PP1 inhibitor project, biochemical, radiolabel, glycogen phosphorylase substrate, powder samples (AID 652111)). Details: recombinant PP5c, 32P/33P phosphorylase dephosphorylation, scintillation.
Serine/threonine-protein phosphatase 5 (Homo sapiens), sequence (P53041 whole entry, looked up): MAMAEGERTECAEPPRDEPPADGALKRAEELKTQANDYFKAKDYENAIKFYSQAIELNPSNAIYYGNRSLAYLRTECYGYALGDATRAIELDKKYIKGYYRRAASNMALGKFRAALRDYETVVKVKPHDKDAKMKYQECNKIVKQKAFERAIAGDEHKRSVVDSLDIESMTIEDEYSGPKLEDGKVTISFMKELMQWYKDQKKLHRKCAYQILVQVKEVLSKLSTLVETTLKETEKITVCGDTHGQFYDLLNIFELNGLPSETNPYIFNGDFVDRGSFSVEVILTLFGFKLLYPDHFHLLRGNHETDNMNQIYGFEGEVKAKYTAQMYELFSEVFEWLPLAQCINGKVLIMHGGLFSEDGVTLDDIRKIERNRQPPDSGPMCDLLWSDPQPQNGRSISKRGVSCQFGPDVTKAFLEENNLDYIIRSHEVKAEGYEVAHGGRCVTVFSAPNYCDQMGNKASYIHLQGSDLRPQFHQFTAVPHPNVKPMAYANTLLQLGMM

Row | SMILES | IC50
1 | CN1CCN(C(c2ccccn2)c2cc(Cl)c3cccnc3c2O)CC1 (stereo not given) | > 50 µM (inactive)
2 | N#Cc1c(-c2ccc(Cl)cc2)cc(-c2cccs2)nc1SCC(=O)O | < 50 µM
3 | CCn1c2ccccc2c2cc(NC(=O)COC(=O)c3ccc(NC(=O)CC#N)cc3)ccc21 | > 50 µM (inactive)
4 | COc1ccc(NC(=O)C2C3CCC(O3)C2C(=O)O)c(OC)c1 (stereo not given) | 4.16 µM
5 | CCOC(=O)c1sc2nc3c(SCC(=O)O)cc(C(=O)c4cc(F)ccc4O)cn3c(=O)c2c1C | < 50 µM
